Measured values taken from paper PMC11882969 (Nature Communications, 2025).
Like-named read-outs stand apart in the source and are kept apart here.

Columns and labels:
[1] = biological target: T1, CB1 (rCB1) (Rattus norvegicus, UniProt P20272); test: Single-point radioligand displacement screen; assay type: binding; details: 10 µM, 1 µM or 300 nM by cell colour (not visible)
[2] = biological target: hCB1 (Homo sapiens, UniProt P21554); test: bioSensAll ebBRET signaling profiling, hCB1; assay type: cell-based; parameters: host or cells: HEK293SL cells, transient PEI transfection; details: for Barr2+GRK2 hCB1 response: Barr2+GRK2 biosensor; for Gi1 hCB1 / GoB hCB1: single replicate values, FigS6a; for EC50: read-out: EC50 [95% CI]; for Emax: normalized to CP-55,940
[3] = biological target: T1, CB1 (rCB1); test: Radioligand competition binding, [3H]-CP-55,940, rat brain membranes; details: for pKi [95% CI]: rCB1

T1 sequence (P20272 whole entry): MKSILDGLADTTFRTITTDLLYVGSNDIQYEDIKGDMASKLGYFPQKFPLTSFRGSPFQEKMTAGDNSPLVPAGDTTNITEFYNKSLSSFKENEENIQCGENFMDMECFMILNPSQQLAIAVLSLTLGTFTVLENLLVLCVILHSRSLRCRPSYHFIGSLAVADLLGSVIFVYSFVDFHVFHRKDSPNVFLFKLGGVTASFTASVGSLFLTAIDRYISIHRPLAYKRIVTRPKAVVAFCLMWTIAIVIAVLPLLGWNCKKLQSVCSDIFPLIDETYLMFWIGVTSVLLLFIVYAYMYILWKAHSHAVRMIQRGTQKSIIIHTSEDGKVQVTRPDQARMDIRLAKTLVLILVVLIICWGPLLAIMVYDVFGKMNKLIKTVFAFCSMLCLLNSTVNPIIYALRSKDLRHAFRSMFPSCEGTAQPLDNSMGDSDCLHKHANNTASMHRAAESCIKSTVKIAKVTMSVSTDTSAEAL
Sequence of hCB1 (P21554 whole entry): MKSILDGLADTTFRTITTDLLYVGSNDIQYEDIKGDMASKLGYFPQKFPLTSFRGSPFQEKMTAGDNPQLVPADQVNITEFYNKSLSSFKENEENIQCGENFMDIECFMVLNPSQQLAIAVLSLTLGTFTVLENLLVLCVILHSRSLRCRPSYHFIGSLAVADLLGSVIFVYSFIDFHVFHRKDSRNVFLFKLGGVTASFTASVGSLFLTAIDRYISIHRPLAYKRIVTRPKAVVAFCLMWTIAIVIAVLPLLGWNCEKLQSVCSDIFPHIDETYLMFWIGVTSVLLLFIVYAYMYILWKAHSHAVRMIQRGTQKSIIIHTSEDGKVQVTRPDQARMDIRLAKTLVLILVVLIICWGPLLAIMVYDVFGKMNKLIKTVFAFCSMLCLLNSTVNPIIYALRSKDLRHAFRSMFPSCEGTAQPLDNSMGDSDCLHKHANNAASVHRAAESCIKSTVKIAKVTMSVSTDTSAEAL

## Cc1nn(Cc2ccc(Cl)cc2)c(C)c1C(=O)OCC1CSc2ccccc2O1 (stereo not shown) [‘5463]
[1]
  % 1H-CP-55,940 displacement (mean) from single point screen: 81.83%
[2]; Log [Compound] (M) -4.22186
  Barr2+GRK2 hCB1 response: -7.036
  Gi1 hCB1: 28.0981
  GoB hCB1: 24.5257
[2]; Log [Compound] (M) -4.63927
  Barr2+GRK2 hCB1 response: -40.2196
  Gi1 hCB1: 21.0665
  GoB hCB1: 14.8206
[2]; Log [Compound] (M) -5.05788
  Barr2+GRK2 hCB1 response: -35.4335
  Gi1 hCB1: 16.6796
  GoB hCB1: 10.4802
[2]; Log [Compound] (M) -5.47381
  Barr2+GRK2 hCB1 response: -41.4959
  Gi1 hCB1: 14.3358
  GoB hCB1: 11.0879
[2]; Log [Compound] (M) -5.89285
  Barr2+GRK2 hCB1 response: -45.6439
  Gi1 hCB1: 7.716
  GoB hCB1: 6.331
[2]; Log [Compound] (M) -6.31878
  Barr2+GRK2 hCB1 response: -47.8774
  Gi1 hCB1: 3.392
  GoB hCB1: 2.3203
[2]; Log [Compound] (M) -6.72585
  Barr2+GRK2 hCB1 response: -53.9398
  Gi1 hCB1: -0.6618
  GoB hCB1: -6.013
[2]; Log [Compound] (M) -7.14267
  Barr2+GRK2 hCB1 response: -43.7294
  Gi1 hCB1: -2.705
  GoB hCB1: -6.777
[2]; Log [Compound] (M) -7.55284
  Barr2+GRK2 hCB1 response: -45.9629
  Gi1 hCB1: -2.958
  GoB hCB1: -3.8083
[2]; Log [Compound] (M) -8
  Barr2+GRK2 hCB1 response: -54.2588
  Gi1 hCB1: -2.752
  GoB hCB1: -8.791
[2]; Log [Compound] (M) -8.22186
  Barr2+GRK2 hCB1 response: -7.036
  Gi1 hCB1: 6.512
  GoB hCB1: 0.4626
[2]; Log [Compound] (M) -8.39794
  Barr2+GRK2 hCB1 response: -23.3088
  Gi1 hCB1: -3.021
  GoB hCB1: -7.2806
[2]; Log [Compound] (M) -8.68787
  Barr2+GRK2 hCB1 response: -41.1769
  Gi1 hCB1: 0.4468
  GoB hCB1: -0.5617
[2]; Log [Compound] (M) -9.15521
  Barr2+GRK2 hCB1 response: -53.6207
  Gi1 hCB1: -1.422
  GoB hCB1: -2.124
[2]; Log [Compound] (M) -9.61989
  Barr2+GRK2 hCB1 response: -38.9433
  Gi1 hCB1: -0.7093
  GoB hCB1: -5.475
[2]; Log [Compound] (M) -10.0969
  Barr2+GRK2 hCB1 response: -52.3444
  Gi1 hCB1: -1.0102
  GoB hCB1: -3.201
[2]; Log [Compound] (M) -10.5529
  Barr2+GRK2 hCB1 response: -37.0289
  Gi1 hCB1: -0.3926
  GoB hCB1: -3.652
[2]; Log [Compound] (M) -11.0177
  Barr2+GRK2 hCB1 response: -49.4727
  Gi1 hCB1: -0.8518
  GoB hCB1: -4.381
[2]; Log [Compound] (M) -11.4949
  Barr2+GRK2 hCB1 response: -43.0913
  Gi1 hCB1: -1.279
  GoB hCB1: -3.965
[2]; Log [Compound] (M) -11.9208
  Barr2+GRK2 hCB1 response: -24.266
  Gi1 hCB1: -2.99
  GoB hCB1: -2.853
[2]; Log [Compound] (M) -12.3979
  Barr2+GRK2 hCB1 response: -7.993
  Gi1 hCB1: -0.25
  GoB hCB1: -4.034
[2]; Log [Compound] (M) -12.8861
  Barr2+GRK2 hCB1 response: -18.5227
  Gi1 hCB1: -2.879
  GoB hCB1: -4.451
[2]; Log [Compound] (M) -13.3979
  Barr2+GRK2 hCB1 response: 10.832
[2]; Log [Compound] (M) -13
  Gi1 hCB1: -0.7885
  GoB hCB1: -4.468
[2]; Log [Compound] (M) cell empty
  Gi1 hCB1: 0.7319
  GoB hCB1: -2.437
[2]; hCB1 Gi1
  pEC50 [95% CI]: 5.3 [3.4 – 5.8]
  EC50: 4.94 µM
[2]; hCB1 GoB
  pEC50 [95% CI]: 5.1 [6.0]
  EC50: 7.47 µM
[2]; read-out: Emax [95% CI], hCB1 Gi1
  Emax: 31%
[2]; read-out: Emax [95% CI], hCB1 GoB
  Emax: 32%
[3]
  pKi [95% CI]: 6.1 [5.8 – 6.4]
[3]; read-out: Ki [95% CI], rCB1, [3H]-CP-55,940
  Ki: 0.825 µM

## COC(=O)C(NC(=O)c1cc(C)n(-c2cccc(C#N)c2)n1)c1ccsc1 (stereo not shown) [‘31604]
[1]
  % 1H-CP-55,940 displacement (mean) from single point screen: 41.46%
[3]
  pKi [95% CI]: 6.1 [6.0 – 6.2]
